According to patent US11028088B2, “Modulators of BTK proteolysis and methods of use” (Yale University, priority 2018, dated 2021):

Assays:
[1] = biological target: BLK (Homo sapiens, UniProt P51451); test: KINOMEscan competition binding assay, BLK; details: read-out: KINOMEscan percentage of control, BLK
[2] = biological target: ERBB3 (Homo sapiens, UniProt P21860); test: KINOMEscan competition binding assay, ERBB3; details: 1.0 μM
[3] = biological target: T1, TEC (Homo sapiens, UniProt P42680); test: KINOMEscan competition binding assay, TEC; details: read-out: KINOMEscan percentage of control, TEC
T1 sequence (P42680 1-631): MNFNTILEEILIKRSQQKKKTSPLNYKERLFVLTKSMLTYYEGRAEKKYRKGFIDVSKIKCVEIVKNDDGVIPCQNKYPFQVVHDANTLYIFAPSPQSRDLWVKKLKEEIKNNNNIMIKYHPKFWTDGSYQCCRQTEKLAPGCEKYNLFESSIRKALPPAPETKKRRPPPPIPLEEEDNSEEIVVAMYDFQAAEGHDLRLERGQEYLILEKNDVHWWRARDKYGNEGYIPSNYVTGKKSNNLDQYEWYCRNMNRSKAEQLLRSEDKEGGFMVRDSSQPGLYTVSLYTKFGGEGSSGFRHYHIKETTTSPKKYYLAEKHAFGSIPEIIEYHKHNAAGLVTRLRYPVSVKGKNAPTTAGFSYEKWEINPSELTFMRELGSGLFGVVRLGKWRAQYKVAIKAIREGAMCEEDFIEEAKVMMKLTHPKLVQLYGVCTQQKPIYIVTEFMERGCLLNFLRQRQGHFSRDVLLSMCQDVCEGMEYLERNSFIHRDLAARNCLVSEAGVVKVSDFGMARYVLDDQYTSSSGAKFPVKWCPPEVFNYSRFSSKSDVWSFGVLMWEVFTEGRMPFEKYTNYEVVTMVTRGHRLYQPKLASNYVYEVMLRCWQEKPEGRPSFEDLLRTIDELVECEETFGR

Sequence of BLK (P51451 whole entry): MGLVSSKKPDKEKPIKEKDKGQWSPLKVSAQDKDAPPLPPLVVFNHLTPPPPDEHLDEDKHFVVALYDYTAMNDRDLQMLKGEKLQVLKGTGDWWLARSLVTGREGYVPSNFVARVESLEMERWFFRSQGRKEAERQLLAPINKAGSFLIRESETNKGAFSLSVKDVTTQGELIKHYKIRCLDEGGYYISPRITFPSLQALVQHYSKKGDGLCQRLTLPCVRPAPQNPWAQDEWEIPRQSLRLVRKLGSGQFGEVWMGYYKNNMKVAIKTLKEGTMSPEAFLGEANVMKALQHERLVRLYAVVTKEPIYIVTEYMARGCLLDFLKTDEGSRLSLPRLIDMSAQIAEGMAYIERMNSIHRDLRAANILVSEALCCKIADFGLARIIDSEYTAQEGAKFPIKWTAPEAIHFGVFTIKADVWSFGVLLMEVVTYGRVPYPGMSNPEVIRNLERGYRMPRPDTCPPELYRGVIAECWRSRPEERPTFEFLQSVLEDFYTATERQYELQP
Sequence of ERBB3 (P21860 20-1342): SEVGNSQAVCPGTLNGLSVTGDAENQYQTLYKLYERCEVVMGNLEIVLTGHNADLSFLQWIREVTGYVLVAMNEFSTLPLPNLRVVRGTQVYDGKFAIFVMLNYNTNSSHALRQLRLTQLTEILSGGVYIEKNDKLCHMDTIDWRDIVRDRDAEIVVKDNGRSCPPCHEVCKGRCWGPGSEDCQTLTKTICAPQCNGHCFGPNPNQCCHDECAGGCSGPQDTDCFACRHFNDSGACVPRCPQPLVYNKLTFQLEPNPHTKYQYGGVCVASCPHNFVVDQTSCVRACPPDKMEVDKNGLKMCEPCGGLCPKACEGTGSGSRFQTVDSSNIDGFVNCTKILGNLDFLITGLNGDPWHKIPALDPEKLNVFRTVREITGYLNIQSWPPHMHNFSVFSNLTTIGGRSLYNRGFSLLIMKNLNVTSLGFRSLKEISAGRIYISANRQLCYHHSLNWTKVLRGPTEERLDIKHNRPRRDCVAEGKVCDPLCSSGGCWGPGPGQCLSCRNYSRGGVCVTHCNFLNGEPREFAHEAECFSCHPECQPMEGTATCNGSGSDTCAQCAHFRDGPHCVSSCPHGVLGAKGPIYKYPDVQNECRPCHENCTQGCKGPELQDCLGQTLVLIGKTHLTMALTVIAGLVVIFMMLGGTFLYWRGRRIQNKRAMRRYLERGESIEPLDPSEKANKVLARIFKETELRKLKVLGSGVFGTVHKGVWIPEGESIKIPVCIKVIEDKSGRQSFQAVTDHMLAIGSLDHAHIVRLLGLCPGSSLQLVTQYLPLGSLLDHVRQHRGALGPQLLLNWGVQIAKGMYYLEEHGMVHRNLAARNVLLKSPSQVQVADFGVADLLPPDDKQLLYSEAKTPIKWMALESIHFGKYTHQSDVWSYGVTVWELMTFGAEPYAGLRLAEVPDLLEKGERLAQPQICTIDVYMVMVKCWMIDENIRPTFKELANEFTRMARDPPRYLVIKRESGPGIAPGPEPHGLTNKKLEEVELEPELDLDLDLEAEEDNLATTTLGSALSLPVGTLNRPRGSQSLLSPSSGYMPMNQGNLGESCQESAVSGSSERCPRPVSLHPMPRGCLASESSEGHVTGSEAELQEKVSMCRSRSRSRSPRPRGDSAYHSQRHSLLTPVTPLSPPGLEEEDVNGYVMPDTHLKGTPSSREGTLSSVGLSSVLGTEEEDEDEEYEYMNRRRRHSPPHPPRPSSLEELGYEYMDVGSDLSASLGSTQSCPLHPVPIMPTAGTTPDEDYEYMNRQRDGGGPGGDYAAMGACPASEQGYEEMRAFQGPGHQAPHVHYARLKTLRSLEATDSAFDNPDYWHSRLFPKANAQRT

remaining binding at 1 µM [1]: 0.35% | KINOMEscan displacement of competitive probe bound to ERBB3 [2]: fully displaced the competitive probe | remaining binding at 1 µM [3]: 3.6%
SMILES: Nc1ncnc2c1c(-c1ccc(Oc3ccccc3)cc1)nn2C1CCN(CCOCCOCC(=O)Nc2ccc3c(c2)C(=O)N(C2CCC(=O)NC2=O)C3=O)CC1 (stereo not drawn) [Compound 102, 2-[2-[2-[4-[4-amino-3-(4-phenoxyphenyl)pyrazolo[3,4-d]pyrimidin-1-yl]-1-piperidyl]ethoxy]ethoxy]-N-[2-(2,6-dioxo-3-piperidyl)-1,3-dioxo-isoindolin-5-yl]acetamide]
